{"source": "patent US20040058909A1", "about": "“Method of treatment” (priority 2003, published 2004)", "key": {"[1]": {"tested_on": "cynomolgus monkeys exposed to 1-methyl-4-phenyl-1,2,3,6-tetrahydropyridine (MPTP)", "protocol": "Quetiapine may be administered to cynomolgus monkeys exposed to 1-methyl-4-phenyl-1,2,3,6-tetrahydropyridine (MPTP) and which therefore have MPTP-induced Parkinson's Disease. Such monkeys are described by Blanchet et al., Experimental Neurology, 153, 214-222 (1998).\nThe monkeys are assessed according to the Laval University Disability Scale for MPTP monkeys with the following motor and behavioural parameters scored: posture (normal, flexed, crouched); mobility (normal, passive); climbing (present, absent); gait (normal, abnormal); tremor (present, absent); holding food (present, absent); vocalising (present, absent); grooming (present, absent); and social interaction (present, absent).\nQuetiapine may be administered at various dosage values, either alone or with varying dosages of levodopa, and scoring is carried out at regular intervals.\nQuetiapine was administered subcutaneously to 8 cynomolgus monkeys at doses of 2 mg/Kg and 4 mg/Kg."}, "[2]": {"tested_on": "patients suffering from Parkinson's Disease", "details": "patients with Parkinson's Disease treated for psychoses; cited from earlier work"}}, "data": [{"molecule": "OCCOCCN1CCN(C2=Nc3ccccc3Sc3ccccc32)CC1", "note": "[Quetiapine, 11-(4-[2-(2-hydroxyethoxy)ethyl]-l-piperazinyl)dibenzo[b,f] [1.4]-thiazepine]", "values": [{"measurement": "levodopa effect on Parkinson's Disease symptoms", "setting": "[1]; quetiapine 2 mg/Kg and 4 mg/Kg subcutaneously with levodopa", "result": "unchanged"}, {"measurement": "reduction of levodopa-induced dyskinesias, compared with the 4 mg/Kg dose", "setting": "[1]; quetiapine 2 mg/Kg subcutaneously, 8 cynomolgus monkeys", "result": "less effective"}, {"measurement": "reduction of maximum levodopa-induced dyskinesias", "setting": "[1]; quetiapine 4 mg/Kg subcutaneously, levodopa dose sufficient to produce maximum dyskinesias, 8 cynomolgus monkeys", "result": 41, "unit": "%"}, {"measurement": "reduction of moderate levodopa-induced dyskinesias", "setting": "[1]; quetiapine 4 mg/Kg subcutaneously, levodopa dose sufficient to produce moderate dyskinesias, 8 cynomolgus monkeys", "result": 57, "unit": "%"}, {"measurement": "exacerbation of extra-pyramidal symptoms", "setting": "[2]", "result": "no exacerbation of extra-pyramidal symptoms"}]}]}
